The source of these data is patent US11884652B2, “Tetrazole derivatives as TRPA1 inhibitors” (Boehringer Ingelheim International GmbH, priority 2020, dated 2024).

In general, IC50 refers to the concentration needed to halve the response being measured.

One data set deals with T1, human TRPA1 ion channel (Homo sapiens, UniProt O75762).
T1 construct: host or cells: HEK293
Nature of the data set: Assay A: TRPA1 assay (FLIPR, AITC-induced calcium, HEK293 cells). The class given is cell-based. Particulars: read-out: hTRPA1 IC50. On the procedure:
A human HEK293 cell line over-expressing the human TRPA1 ion channel (Perkin Elmer, Product No. AX-004-PCL) is used as a test system for compound efficacy and potency. Compound activity is determined by measuring the effect of compounds on intracellular calcium concentration induced by AITC (Allylisothiocyanat) agonism in a FLIPRtetra system (Molecular Devices).
The cells are obtained as frozen cells in cryo-vials and stored until use at −150° C. Cells are grown in culture medium (MEM/EBSS medium with 10% FCS and 0.4 mg/ML Geneticin). […] For sub-culturing cells are detached from flasks by Versene. At the day before the assay, cells are detached, washed twice with medium (MEM/EBSS medium with 10% FCS) and 20000 cells in 20 μl/well are seeded to Poly D-Lysin biocoated 384-well plates (black, clear bottom, Cat. 356697) from Corning. Plates are incubated for 24 hours at 37° C./5% CO2 before use in the assay.
The test compounds are dissolved in 100% DMSO at a concentration of 10 mM and in a first step diluted in DMSO to a concentration of 5 mM, followed by serial dilution steps in 100% DMSO. Dilution factor and number of dilution steps may vary according to needs. Typically 8 different concentrations by 1:5 dilutions are prepared, further intermediate dilutions (1:20) of the substances are carried out with HBSS/HEPES buffer (1×HEPES, Cat. 14065 from Gibco, 20 mM HEPES, Cat. 83264 from SIGMA, 0.1% BSA Cat. 11926 from Invitrogen, pH 7.4
At the assay day cells are washed 3× with assay puffer, 20 μL buffer remaining in the wells after washing. 10 μL Ca6 kit (Cat. R8191 MolecularDevices) loading buffer in HBSS/HEPES is added to the cells and the plates are incubated with lid for 120 minutes at 37°/5% CO2. 10 μL of compound or controls in HBSS/HEPES buffer/5% DMSO from the intermediate dilution plate are carefully added to the wells. […] Finally 10 μL of the agonist AITC 50 μM dissolved in HBSS/HEPES buffer/0.05% DMSO (final concentration 10 μM) is added to the wells followed by an additional read on the FLIPRtetra device for 10 minutes. The area under the signal curve (AUC) after AITC addition is used for IC50/% inhibition calculations
Data Evaluation and Calculation:
Each assay microtiter plate contains wells with vehicle (1% DMSO) controls instead of compound as controls for AITC induced luminescence (100% CTL; high controls) and wells with vehicle controls without AITC as controls for non-specific changes in luminescence (0% CTL; low controls).
The analysis of the data is performed by the calculation of the area under signal curve of the individual wells. Based on this values the % value for the measurement of each substance concentration is calculated (AUC(sample)−AUC(low))*100/(AUC(high)−AUC(low)) using MegaLab software (in house development). The IC50 values are calculated from the % control values using MegaLab software. Calculation: [y=(ad)/(1+(x/c)^b)+d], a=low value, d=high value; x=conc M; c=IC50 M; b=hill; y=% ctrl

Data set [1] in a line: Assay B: Microsomal clearance. The class given is in vitro ADME, human. To be noted: pooled liver microsomes 1 mg/ml, 1 μM compound, NADPH, 37° C.; clearance as % of hepatic blood flow. On the procedure:
Assay B: Microsomal Clearance:
The metabolic degradation of the test compound is assayed at 37° C. with pooled liver microsomes. The final incubation volume of 100 μl per time point contains TRIS buffer pH 7.6 at RT (0.1 M), magnesium chloride (5 mM), microsomal protein (1 mg/ml) and the test compound at a final concentration of 1 μM.
Following a short preincubation period at 37° C., the reactions are initiated by addition of beta-nicotinamide adenine dinucleotide phosphate, reduced form (NADPH, 1 mM) and terminated by transferring an aliquot into solvent after different time points (0, 5, 15, 30, 60 min). Additionally, the NADPH-independent degradation is monitored in incubations without NADPH, terminated at the last time point. The [%] remaining test compound after NADPH independent incubation is reflected by the parameter c(control) (metabolic stability). The quenched incubations are pelleted by centrifugation (10000 g, 5 min).
An aliquot of the supernatant is assayed by LC-MS/MS for the amount of parent compound. The half-life (t½ INVITRO) is determined by the slope of the semilogarithmic plot of the concentration-time profile.
The intrinsic clearance (CL_[…]) is calculated by considering the amount of protein in the incubation: CL_[…] [μl/min/mg protein]=(Ln 2/(half-life [min]*protein content [mg/ml]))*1000 CL_[…]_INVIVO [ml/min/kg]=(CL_[…] [μL/min/mg protein]×MPPGL [mg protein/g liver]×liver factor [g/kg bodyweight])/1000 Qh[%]=CL[ml/min/kg]/hepatic blood flow [ml/min/kg])
(§1) Hepatocellularity, human: 120×10e6 cells/g liver
(§2) Liver factor, human: 25.7 g/kg bodyweight
(§3) Blood flow, human: 21 ml/(min×kg)

A short description of data set [2]: Assay C: Hepatocyte clearance. The class given is in vitro ADME, human. Particulars: hepatocyte suspension, 1 μM compound, 6 h; predicted clearance as % of hepatic blood flow. The protocol: Assay C: Hepatocyte Clearance
The metabolic degradation of the test compound is assayed in a hepatocyte suspension. Hepatocytes (cryopreserved) are incubated in Dulbecco's modified eagle medium (supplemented with 3.5 μg glucagon/500 mL, 2.5 mg insulin/500 mL and 3.75 mg/500 mL hydrocortison) containing 5% or 50% species serum.
The cells are incubated for six hours (incubator, orbital shaker) and samples ([…]) are taken at 0, 0.5, 1, 2, 4 and 6 hours. Samples are transferred into acetonitrile and pelleted by centrifugation (5 min). The supernatant is transferred to a new 96-deepwell plate, evaporated under nitrogen and resuspended.
Decline of Parent Compound is Analyzed by HPLC-MS/MS
CLint is calculated as follows CL_[…]=Dose/AUC=(C0/CD)/(AUD+clast/k)×1000/60. C0: initial concentration in the incubation [μM], CD: cell density of vital cells [10e6 cells/mL], AUD: area under the data [μM×h], clast: concentration of last data point [μM], k: slope of the regression line for parent decline [h−1].
The calculated in vitro hepatic intrinsic clearance can be scaled up to the intrinsic in vivo hepatic Clearance and used to predict hepatic in vivo blood clearance (CL) by the use of a liver model (well stirred model). CL_[…]_INVIVO [ml/min/kg]=(CL_[…] [μL/min/10e6 cells]×hepatocellularity [10e6 cells/g liver]×liver factor [g/kg bodyweight])/1000 CL[ml/min/kg]=CL_[…]_INVIVO [ml/min/kg]×hepatic blood flow [ml/min/kg]/(CL_[…]_INVIVO [ml/min/kg]+hepatic blood flow [ml/min/kg]) Qh[%]=CL[ml/min/kg]/hepatic blood flow [ml/min/kg])
as §1, §2, §3

T1 sequence (O75762 whole entry): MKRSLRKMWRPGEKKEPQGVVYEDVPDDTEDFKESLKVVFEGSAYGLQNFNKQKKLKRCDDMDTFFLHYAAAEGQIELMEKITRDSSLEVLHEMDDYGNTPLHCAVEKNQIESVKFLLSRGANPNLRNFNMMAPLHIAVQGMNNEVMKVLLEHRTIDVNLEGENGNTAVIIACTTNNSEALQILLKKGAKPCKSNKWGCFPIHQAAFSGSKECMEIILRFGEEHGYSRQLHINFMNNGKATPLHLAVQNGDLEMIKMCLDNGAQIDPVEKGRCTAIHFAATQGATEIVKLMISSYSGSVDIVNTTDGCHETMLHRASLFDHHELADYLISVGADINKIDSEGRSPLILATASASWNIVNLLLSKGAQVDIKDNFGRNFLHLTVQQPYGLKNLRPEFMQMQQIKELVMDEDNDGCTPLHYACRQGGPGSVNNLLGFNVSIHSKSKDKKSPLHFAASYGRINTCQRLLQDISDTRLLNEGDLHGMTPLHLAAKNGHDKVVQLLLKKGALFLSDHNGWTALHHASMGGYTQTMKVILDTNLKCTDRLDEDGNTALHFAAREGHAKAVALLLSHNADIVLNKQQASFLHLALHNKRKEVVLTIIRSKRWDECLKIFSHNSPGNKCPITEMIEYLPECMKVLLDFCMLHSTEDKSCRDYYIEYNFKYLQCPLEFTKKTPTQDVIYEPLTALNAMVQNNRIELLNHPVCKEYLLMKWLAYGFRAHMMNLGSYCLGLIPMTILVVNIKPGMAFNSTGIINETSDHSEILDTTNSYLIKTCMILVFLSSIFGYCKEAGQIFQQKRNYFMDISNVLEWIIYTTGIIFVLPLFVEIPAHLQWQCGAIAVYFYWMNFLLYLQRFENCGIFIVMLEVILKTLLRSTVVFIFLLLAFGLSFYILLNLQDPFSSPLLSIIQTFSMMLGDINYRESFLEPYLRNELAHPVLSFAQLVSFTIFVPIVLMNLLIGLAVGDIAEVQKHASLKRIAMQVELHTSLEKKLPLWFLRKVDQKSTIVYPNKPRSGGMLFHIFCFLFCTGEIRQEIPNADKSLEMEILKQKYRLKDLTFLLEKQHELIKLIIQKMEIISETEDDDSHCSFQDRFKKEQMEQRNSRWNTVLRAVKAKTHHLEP

On to `NC(=O)c1cn(Cc2nnn(C[C@H](O)c3ccc(Cl)cc3)n2)c(=O)n(CC2CC2)c1=O` [Example 20], for which, at human TRPA1 ion channel, the IC50 was determined as 64 nM. Moreover, the “human LM [% Qh]” value in data set [1] was less than 23 % Qh. Besides, the “human Hepatocytes [% Qh]” value in data set [2] was 15 % Qh.
As for `Cn1c(=O)c(C(N)=O)cn(Cc2nnn(C[C@H](O)c3cc(Cl)c(Cl)s3)n2)c1=O` [Example 5], on human TRPA1 ion channel, the IC50 was determined as 26 nM. The “human LM [% Qh]” value in data set [1] is less than 23 % Qh. Moreover, in data set [2], the “human Hepatocytes [% Qh]” value is given as 43 % Qh.
For the compound `Cn1c(=O)c(C(N)=O)cn(Cc2nnn(C[C@H](O)c3ccc(C#N)s3)n2)c1=O` [Example 14], the IC50 on human TRPA1 ion channel amounted to 156 nM. Also, in data set [1], the “human LM [% Qh]” value is less than 23 % Qh. In data set [2], the “human Hepatocytes [% Qh]” value was 4 % Qh.
Consider `CN1CCOCC1CNC(=O)c1cn(Cc2nnn(C[C@H](O)c3ccc(Cl)cc3)n2)c(=O)n(C)c1=O` (stereo partly drawn) [Example 25], for which the IC50 on human TRPA1 ion channel stood at 43 nM. The “human LM [% Qh]” value in data set [1] was determined as 55 % Qh. Further, the “human Hepatocytes [% Qh]” value in data set [2] is reported as 42 % Qh.
In the same order, the values of `CCNC(=O)c1cn(Cc2nnn(C[C@H](O)c3ccc(Cl)cc3)n2)c(=O)n(C)c1=O` [Example 34] are 297 nM, 43 % Qh and 44 % Qh.
`CNC(=O)c1cn(Cc2nnn(C[C@H](O)c3ccc(Cl)cc3)n2)c(=O)n(C)c1=O` [Example 27]: on human TRPA1 ion channel, the IC50 worked out at 140 nM. The “human LM [% Qh]” value in data set [1] is given as less than 23 % Qh. Besides, the “human Hepatocytes [% Qh]” value in data set [2] is listed as 17 % Qh.
For `Cn1c(=O)c(C(=O)NCC(F)(F)F)cn(Cc2nnn(C[C@H](O)c3ccc(Cl)cc3)n2)c1=O` [Example 31] the same measures were 68 nM, less than 23 % Qh and 4 % Qh.
With `Cn1c(=O)c(C(N)=O)cn(Cc2nnn(C[C@H](O)c3ccc(Br)cc3)n2)c1=O` [Example 7], the IC50 on human TRPA1 ion channel is 56 nM. Also, in data set [1], the “human LM [% Qh]” value was less than 23 % Qh. The “human Hepatocytes [% Qh]” value in data set [2] is reported as less than 4 % Qh.
In the case of `Cn1c(=O)c(C(=O)NCCOC(F)(F)F)cn(Cc2nnn(C[C@H](O)c3ccc(Cl)cc3)n2)c1=O` [Example 30], the IC50 at human TRPA1 ion channel came to 44 nM. Also, the “human LM [% Qh]” value in data set [1] was found to be 28 % Qh. In addition, the “human Hepatocytes [% Qh]” value in data set [2] is 9 % Qh.
As to `Cn1c(=O)c(C(N)=O)cn(Cc2nnn(C[C@H](O)c3ccc(Cl)cc3)n2)c1=O` [Example 1, 1-({2-[(2R)-2-(4-chlorophenyl)-2-hydroxyethyl]-2H-1,2,3,4-tetrazol-5-yl}methyl)-3-methyl-2,4-dioxo-1,2,3,4-tetrahydropyrimidine-5-carboxamide], the IC50 at human TRPA1 ion channel amounted to 40 nM. Further, the “human LM [% Qh]” value in data set [1] is on record as less than 23 % Qh. Moreover, the “human Hepatocytes [% Qh]” value in data set [2] was less than 4 % Qh.
For the compound `Cn1c(=O)c(C(N)=O)cn(Cc2nnn(C[C@H](O)c3cc4cccc(F)c4o3)n2)c1=O` [Example 15], the IC50 on human TRPA1 ion channel stood at 198 nM. The “human LM [% Qh]” value in data set [1] is reported as less than 23 % Qh. For the same compound, the “human Hepatocytes [% Qh]” value in data set [2] is 14 % Qh.
For the compound `Cn1c(=O)c(C(N)=O)cn(Cc2nnn(C[C@H](O)c3cc4ccccc4o3)n2)c1=O` [Example 9], the IC50 at human TRPA1 ion channel worked out at 72 nM. The “human LM [% Qh]” value in data set [1] is given as less than 23 % Qh. In addition, the “human Hepatocytes [% Qh]” value in data set [2] is recorded as 7 % Qh.
In the same order, the values of `NC(=O)c1cn(Cc2nnn(C[C@H](O)c3ccc(Cl)cc3)n2)c(=O)n(C2CCC2)c1=O` [Example 18] are 33 nM, 38 % Qh and 39 % Qh.
Take `Cn1c(=O)c(C(=O)NCCN2CCOCC2)cn(Cc2nnn(C[C@H](O)c3ccc(Cl)cc3)n2)c1=O` [Example 24]: the IC50 on human TRPA1 ion channel stood at 39 nM. For the same compound, the “human LM [% Qh]” value in data set [1] came to 38 % Qh. In addition, the “human Hepatocytes [% Qh]” value in data set [2] is given as 28 % Qh.
Turning to `Cc1ccc([C@@H](O)Cn2nnc(Cn3cc(C(N)=O)c(=O)n(C)c3=O)n2)cc1` [Example 13], the IC50 at human TRPA1 ion channel is 124 nM. Moreover, the “human LM [% Qh]” value in data set [1] is listed as less than 23 % Qh. The “human Hepatocytes [% Qh]” value in data set [2] is recorded as less than 4 % Qh.
On to `COCCNC(=O)c1cn(Cc2nnn(C[C@H](O)c3ccc(Cl)cc3)n2)c(=O)n(C)c1=O` [Example 22, 1-({2-[(2R)-2-(4-chlorophenyl)-2-hydroxyethyl]-2H-1,2,3,4-tetrazol-5-yl}methyl)-N-(2-methoxyethyl)-3-methyl-2,4-dioxo-1,2,3,4-tetrahydropyrimidine-5-carboxamide], for which, at human TRPA1 ion channel, the IC50 was determined as 23 nM. The “human LM [% Qh]” value in data set [1] is less than 23 % Qh. Also, the “human Hepatocytes [% Qh]” value in data set [2] is given as 25 % Qh.
On to `Cn1ccnc1CNC(=O)c1cn(Cc2nnn(C[C@H](O)c3ccc(Cl)cc3)n2)c(=O)n(C)c1=O` [Example 26], for which, on human TRPA1 ion channel, the IC50 worked out at 100 nM. For the same compound, in data set [1], the “human LM [% Qh]” value turned out to be 52 % Qh. In addition, the “human Hepatocytes [% Qh]” value in data set [2] was 21 % Qh.
Turning to `CC(C)Cn1c(=O)c(C(N)=O)cn(Cc2nnn(C[C@H](O)c3ccc(Cl)cc3)n2)c1=O` [Example 17], the IC50 at human TRPA1 ion channel was 213 nM. Besides, the “human LM [% Qh]” value in data set [1] came to 42 % Qh. In data set [2], the “human Hepatocytes [% Qh]” value is listed as 49 % Qh.
For `Cn1c(=O)c(C(=O)NCCF)cn(Cc2nnn(C[C@H](O)c3ccc(Cl)cc3)n2)c1=O` [Example 33], the IC50 at human TRPA1 ion channel was determined as 116 nM. The “human LM [% Qh]” value in data set [1] was 57 % Qh. In addition, the “human Hepatocytes [% Qh]” value in data set [2] is on record as 28 % Qh.
`Cn1c(=O)c(C(N)=O)cn(Cc2nnn(C[C@H](O)c3cc4ccc(F)cc4s3)n2)c1=O` [Example 3]: the IC50 on human TRPA1 ion channel came to 18 nM. For the same compound, the “human LM [% Qh]” value in data set [1] is given as 26 % Qh. The “human Hepatocytes [% Qh]” value in data set [2] is 27 % Qh.
